# Measurements reported in patent US9149540B2, “Polymer conjugate of folic acid or folic acid derivative” (Nippon Kayaku Kabushiki Kaisha, priority 2008, dated 2015).
# Values joined by “and” are separate entries in the source; they are usually repeats but may differ in a detail not shown here. Identical values can stand only once.
# Key:
# [1] = system: Mouse colon cancer Colon 26; assay: Antitumor effect on mouse colon cancer Colon 26-transplanted mouse; assay type: in vivo; settings: for Relative tumor volume mean ± SD: 12th day after initiation of administration, day of initiation = 1.0; for suppression of tumor growth (in words) / dose dependence of tumor growth suppression (in words): single administration; for dose dependence of tumor growth suppression (in words): doses of Table 1
# Method: Mouse colon cancer Colon 26 cells subcutaneously subcultured in a BALB/c mouse were prepared in the form of a block which measured about 2 mm on each side, and the block was subcutaneously transplanted on the dorsal part of a CDF1 mouse using a trocar. […] The tumor volume on the day of initiation of administration was taken as 1.0, and while taking the 12th day after the initiation of administration as the day of determination, the relative tumor volume of each administered group was determined. The dose in the compounds of the present invention is converted to that of MTX.
# [2] = system: rat collagen-induced arthritis model; assay: Anti-inflammatory evaluation 2 using rat collagen-induced arthritis model (Test Example 4); assay type: in vivo; settings: 8th, 15th and 22nd day after sensitization
# Method: The test was carried out in the same manner as in Test Example 3. […] The groups administered with 1.00 mg/kg (convert to dose of MTX) and 1.25 mg/kg (convert to dose of MTX) of MTX_G-40, and the group administered with 2.5 mg/kg of MTX were administered with the drug through the tail vein on the 1st day, 8th day, 15th day and 22nd day after sensitization.
# [3] = system: rat collagen-induced arthritis model; assay: Anti-inflammatory evaluation using rat collagen-induced arthritis model (Test Example 3)
# [4] = once 25 mg/kg in terms of MTX, tail vein
# [5] = once 25 mg/kg in terms of MTX, tail vein, 25 mg/kg
# [6] = once 50 mg/kg in terms of MTX, tail vein
# [7] = 15 mg/kg/day tail vein, 5 successive days (total 75 mg/kg)
compound,measurement,setting,value
PEG-Asp44(γ-Tyramine-MTX)-Ac [MTX_G-44],Toxicity (death/n),"[1]; once 12.5 mg/kg in terms of MTX, tail vein",0/3
same,Relative tumor volume mean ± SD,"[1]; once 12.5 mg/kg in terms of MTX, tail vein, 12.5 mg/kg",8.2 and 8.2 ± 1.0
same,death of toxicity (in words),[1]; once 25 mg/kg in terms of MTX,one animal died of toxicity
same,Toxicity (death/n),[1]; [4],1/3
same,Relative tumor volume mean ± SD,[1]; [5],2.3 and 2.3 ± 1.1
same,Toxicity (death/n),[1]; [6],1/3
same,Relative tumor volume mean ± SD,[1]; [6],0.4 ± 0.1
same,suppression of tumor growth (in words),[1],strongly suppress the growth of tumor with a single administration
same,dose dependence of tumor growth suppression (in words),[1],tumor growth is suppressed in a manner dependent on the amount of administration
"CN(Cc1cnc2nc(N)nc(N)c2n1)c1ccc(C(=O)N[C@@H](CCC(=O)O)C(=O)O)cc1 [MTX, methotrexate, reference compound]","anti-inflammatory effect, arthritis score of left footpad (FIG. 3)",[2]; 2.5 mg/kg tail vein on 1st,delayed the time of onset of inflammation as compared with the control group
same,"anti-inflammatory effect, arthritis score of left footpad (FIG. 2)",[3]; 2.5 mg/kg tail vein on 1st and 8th day after sensitization,no anti-inflammatory effects were observed
same,antitumor effect (in words),[1]; 15 mg/kg for 5 successive days,an antitumor effect was not observed
same,Toxicity (death/n),[1]; [7],0/3
same,Relative tumor volume mean ± SD,[1]; [7],12.2 and 12.2 ± 8.1
same,death of toxicity (in words),[1]; 20 mg/kg for 5 successive days,all of the animals died of toxicity
same,Toxicity (death/n),"[1]; 20 mg/kg/day tail vein, 5 successive days (total 100 mg/kg)",3/3
PEG-Asp40(γ-Tyramine-MTX)-Ac [MTX_G-40],"anti-inflammatory effect, arthritis score of left footpad (FIG. 3)",[2]; 1.00 mg/kg (dose of MTX) tail vein on 1st,further delayed the time of onset of inflammation compared to MTX
same,"anti-inflammatory effect, arthritis score of left footpad (FIG. 3)",[2]; 1.25 mg/kg (dose of MTX) tail vein on 1st,completely suppressed the onset of inflammation for the 28 days of monitoring
PEG-Asp40(α-Tyramine-MTX)-Ac [MTX_A-40],"anti-inflammatory effect, arthritis score of left footpad (FIG. 2)","[3]; 2.5 mg/kg on 1st day, or 1.25 mg/kg on 1st and 8th day after sensitization, in terms of MTX, tail vein",delayed the time of onset of inflammation
same,Toxicity (death/n),[1]; [4],0/3
same,Relative tumor volume mean ± SD,[1]; [5],6.8 and 6.8 ± 0.7
same,death of toxicity (in words),[1]; once 50 mg/kg in terms of MTX,one animal died of toxicity
same,Toxicity (death/n),[1]; [6],1/3
same,Relative tumor volume mean ± SD,"[1]; once 50 mg/kg in terms of MTX, tail vein, 50 mg/kg",4.8 and 4.8 ± 2.8
same,suppression of tumor growth (in words),[1],strongly suppress the growth of tumor with a single administration
same,dose dependence of tumor growth suppression (in words),[1],tumor growth is suppressed in a manner dependent on the amount of administration
